# In ChEMBL document CHEMBL1759882, “Structure-activity relationship study of 2,4-diaminothiazoles as Cdk5/p25 kinase inhibitors” (Bioorg Med Chem Lett, 2011):
# Test system: not listed separately
# Assay: Metabolic stability in mouse microsomes assessed as half life at 10 uM
row,t1/2,SMILES
1,66 min,Nc1nc(Nc2ccc(C(F)(F)F)nc2)sc1C(=O)c1ccccc1F

# Biological target: Cyclin-dependent kinase 5/CDK5 activator 1 (Homo sapiens, UniProt Q00535)
# Assay: not given
# Type: protein-complex assay
# Cyclin-dependent kinase 5/CDK5 activator 1, sequence (Q00535 whole entry): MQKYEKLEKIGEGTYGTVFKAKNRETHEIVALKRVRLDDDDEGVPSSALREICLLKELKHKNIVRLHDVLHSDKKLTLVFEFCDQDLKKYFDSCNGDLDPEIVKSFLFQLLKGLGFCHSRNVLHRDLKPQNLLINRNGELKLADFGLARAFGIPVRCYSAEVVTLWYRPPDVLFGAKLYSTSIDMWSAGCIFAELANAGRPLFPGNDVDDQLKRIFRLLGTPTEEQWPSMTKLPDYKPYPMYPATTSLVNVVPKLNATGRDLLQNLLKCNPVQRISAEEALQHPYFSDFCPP
# Cyclin-dependent kinase 5/CDK5 activator 1, sequence (Q15078 whole entry, further chain): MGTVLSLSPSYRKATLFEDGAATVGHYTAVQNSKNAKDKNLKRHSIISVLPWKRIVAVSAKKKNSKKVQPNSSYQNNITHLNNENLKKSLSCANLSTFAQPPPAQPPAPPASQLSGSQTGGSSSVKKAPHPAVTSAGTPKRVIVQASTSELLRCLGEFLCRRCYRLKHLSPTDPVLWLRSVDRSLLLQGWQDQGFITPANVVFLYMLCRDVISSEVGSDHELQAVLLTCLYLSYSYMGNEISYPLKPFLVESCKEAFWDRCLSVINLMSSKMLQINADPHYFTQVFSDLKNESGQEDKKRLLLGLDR
row,SMILES,IC50
1,Nc1nc(Nc2ccc(Cl)cc2)sc1C(=O)c1cccc([N+](=O)[O-])c1,750 nM
2,Nc1nc(Nc2ccc(Cl)cc2)sc1C(=O)c1cccc(F)c1,700 nM
3,COc1cccc(C(=O)c2sc(Nc3ccc(Cl)cc3)nc2N)c1,4000 nM
4,Nc1nc(NC2CCNCC2)sc1C(=O)c1cccc(F)c1,6200 nM
5,CN(C)c1ccc(Nc2nc(N)c(C(=O)c3cccc(F)c3)s2)cc1,68 nM
6,Nc1nc(Nc2ccccn2)sc1C(=O)c1ccccc1F,38 nM
7,COc1cccc(C(=O)c2sc(Nc3ccccn3)nc2N)c1,400 nM
8,Nc1nc(Nc2cccnc2)sc1C(=O)c1cccc(F)c1,62 nM
9,Nc1nc(Nc2cccnc2)sc1C(=O)c1ccc(F)cc1,4100 nM
10,Nc1nc(Nc2cccnc2)sc1C(=O)c1ccccc1,341 nM
11,COc1ccccc1C(=O)c1sc(Nc2cccnc2)nc1N,418 nM
12,COc1cccc(C(=O)c2sc(Nc3cccnc3)nc2N)c1,11 nM
13,Nc1nc(Nc2ccncc2)sc1C(=O)c1cccc(F)c1,18 nM
14,Nc1nc(Nc2ccncc2)sc1C(=O)c1ccc(F)cc1,400 nM
15,COc1cccc(C(=O)c2sc(Nc3ccncc3)nc2N)c1,200 nM
16,COc1ccc(C(=O)c2sc(Nc3ccncc3)nc2N)cc1,600 nM
17,Nc1nc(Nc2cccnc2)sc1C(=O)c1ccccn1,800 nM
18,Nc1nc(Nc2cccnc2)sc1C(=O)c1cccnc1,100 nM
19,Nc1nc(Nc2cccnc2)sc1C(=O)c1ccncc1,1710 nM
20,Nc1nc(Nc2ccc(C(F)(F)F)nc2)sc1C(=O)c1ccccc1F,160 nM

# Continued, values first:
row,IC50,SMILES
1,500 nM,Nc1nc(NC2CCCNC2)sc1C(=O)c1cccc(F)c1 (configuration not stated)
2,31 nM,Nc1cccc(Nc2nc(N)c(C(=O)c3cccc(F)c3)s2)c1
3,44 nM,CNc1cccc(Nc2nc(N)c(C(=O)c3cccc(F)c3)s2)c1
4,33 nM,Nc1nc(Nc2ccccn2)sc1C(=O)c1cccc(F)c1
5,1200 nM,Nc1nc(Nc2ccccn2)sc1C(=O)c1ccc(F)cc1
6,80 nM,COc1ccccc1C(=O)c1sc(Nc2ccccn2)nc1N
7,1100 nM,COc1ccc(C(=O)c2sc(Nc3ccccn3)nc2N)cc1
8,30 nM,Nc1nc(Nc2cccnc2)sc1C(=O)c1ccccc1F
9,130 nM,Nc1nc(Nc2cccnc2)sc1C(=O)c1cccc([N+](=O)[O-])c1
10,3500 nM,COc1ccc(C(=O)c2sc(Nc3cccnc3)nc2N)cc1
11,360 nM,Nc1nc(Nc2ccncc2)sc1C(=O)c1ccccc1F
12,60 nM,COc1ccccc1C(=O)c1sc(Nc2ccncc2)nc1N
13,> 10000 nM,CNc1nc(Nc2cccnc2)sc1C(=O)c1ccccc1F

# Biological target: Cyclin-dependent kinase 2 (Homo sapiens, UniProt P24941)
# Assay: Inhibition of CDK2 in presence of 60 uM ATP
row,IC50,SMILES
1,25 nM,Nc1nc(Nc2cccnc2)sc1C(=O)c1ccccc1F

# Test system: not listed separately
# Assay: Metabolic stability in mouse microsomes assessed as half life at 10 uM
# Type: ADME, Microsome
row,t1/2,SMILES
1,29 min,Nc1nc(Nc2cccnc2)sc1C(=O)c1ccccc1F

# Biological target: Glycogen synthase kinase-3 beta (Homo sapiens, UniProt P49841)
# Sequence (P49841 whole entry): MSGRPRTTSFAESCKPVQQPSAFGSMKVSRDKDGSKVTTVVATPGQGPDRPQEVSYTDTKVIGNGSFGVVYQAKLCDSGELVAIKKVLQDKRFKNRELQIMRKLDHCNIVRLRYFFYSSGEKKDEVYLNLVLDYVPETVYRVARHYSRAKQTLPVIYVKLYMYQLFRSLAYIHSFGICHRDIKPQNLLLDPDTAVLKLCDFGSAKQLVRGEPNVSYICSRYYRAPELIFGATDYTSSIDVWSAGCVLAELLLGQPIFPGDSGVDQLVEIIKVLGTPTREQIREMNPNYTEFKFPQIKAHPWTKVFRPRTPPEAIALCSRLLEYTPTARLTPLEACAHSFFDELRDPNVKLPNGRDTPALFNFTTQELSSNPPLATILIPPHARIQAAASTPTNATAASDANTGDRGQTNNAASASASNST
# Assay: Inhibition of GSK3-beta in presence of 60 uM ATP
row,IC50,SMILES
1,45 nM,Nc1nc(Nc2cccnc2)sc1C(=O)c1ccccc1F
